Measurements taken from US20240391940A1, “FUSED RING-CONTAINING COMPOUND, APPLICATION THEREOF, AND COMPOSITION CONTAINING SAME” (GenEros Biopharma Ltd., priority 2020, published 2024).
Like-named read-outs stand apart in the source and are kept apart here.

Experiments:
hERG = biological target: T1, hERG (Homo sapiens, UniProt Q12809); assay: hERG ion channel inhibition, automated QPatch on CHO cells expressing hERG; type: cell-based; conditions: human, CHO cells stably expressing hERG channels
T1 construct: expressed in transfected cells; host or cells: CHO cells, stably transfected
T1 sequence (Q12809 whole entry): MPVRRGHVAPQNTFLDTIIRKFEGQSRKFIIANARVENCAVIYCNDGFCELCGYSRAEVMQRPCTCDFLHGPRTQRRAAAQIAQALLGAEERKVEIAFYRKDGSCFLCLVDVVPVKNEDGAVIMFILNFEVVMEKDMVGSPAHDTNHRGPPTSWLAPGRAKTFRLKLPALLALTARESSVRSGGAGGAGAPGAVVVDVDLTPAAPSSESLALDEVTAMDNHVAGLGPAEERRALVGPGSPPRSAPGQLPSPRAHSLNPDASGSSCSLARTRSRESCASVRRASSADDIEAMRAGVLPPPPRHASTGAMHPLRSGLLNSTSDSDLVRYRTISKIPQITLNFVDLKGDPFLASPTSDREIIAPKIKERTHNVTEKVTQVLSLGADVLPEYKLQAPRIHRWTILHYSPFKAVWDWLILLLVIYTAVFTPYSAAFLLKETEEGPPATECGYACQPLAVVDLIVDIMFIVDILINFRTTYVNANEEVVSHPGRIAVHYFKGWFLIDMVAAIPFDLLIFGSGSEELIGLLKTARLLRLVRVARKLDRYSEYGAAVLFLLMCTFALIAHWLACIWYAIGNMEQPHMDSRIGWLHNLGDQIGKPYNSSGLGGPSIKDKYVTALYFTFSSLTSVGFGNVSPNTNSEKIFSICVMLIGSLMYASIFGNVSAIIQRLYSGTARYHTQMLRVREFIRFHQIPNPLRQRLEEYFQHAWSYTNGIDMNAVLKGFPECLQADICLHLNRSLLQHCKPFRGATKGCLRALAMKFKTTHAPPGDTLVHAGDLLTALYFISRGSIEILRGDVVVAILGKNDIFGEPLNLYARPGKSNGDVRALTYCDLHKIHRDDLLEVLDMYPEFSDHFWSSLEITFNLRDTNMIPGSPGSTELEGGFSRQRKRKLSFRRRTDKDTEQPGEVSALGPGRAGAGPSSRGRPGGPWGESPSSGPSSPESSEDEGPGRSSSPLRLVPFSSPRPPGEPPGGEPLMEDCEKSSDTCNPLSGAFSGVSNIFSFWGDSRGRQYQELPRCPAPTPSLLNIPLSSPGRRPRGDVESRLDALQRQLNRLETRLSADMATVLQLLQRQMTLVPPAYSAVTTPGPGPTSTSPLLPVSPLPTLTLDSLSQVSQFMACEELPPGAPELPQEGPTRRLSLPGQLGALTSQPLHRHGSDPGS
Method: (§1) A CHO cell line stably transfected with cDNA and expressing hERG channels of P15 was used for the study.
(§2) Cells were maintained in Petri dishes or flasks at 37° C. in a humidified incubator with 5% CO2 and cultured in a medium containing Ham's F12, 10% (v/v) heat-inactivated FBS, 100 μg/mL hygromycin B and 100 μg/mL geneticin (from Invitrogen). The cells were allowed to grow and reach a confluency of about 80-90% under the above conditions. Before the experiment, the cells were treated with Detachin (from Genlantis) for 3-5 min, at 37° C., then gently mixed well with medium at room temperature, and titrated 15-20 times with a pipette. Then the cells were resuspended in a serum-free medium containing CHO—S-SFM II medium (from Invitrogen) buffered with HEPES (25 mM). The cells used in QPatch study must meet the following criteria: under microscopy examination, the majority of cells in suspension should be single and isolated; their viability should be greater than 95%, with only a small amount of debris and cell clumps (which may clog the holes in QPlate during whole-cell clamp recording); the cell density should be within the range of 3-8×10^6 cells/mL in the final suspension before application to the QPatch stir chamber. Cells under such conditions can be used for recording only within four hours of being harvested.
(§3) Data acquisition was performed using automated QPatch (Sophion Biosciences, Denmark). The cells were voltage-clamped at a holding potential of −80 mV. The hERG current was activated by depolarization at +20 mV for 5 s, after which the current was activated back to −50 mV for 2.5 s to remove the inactivation and observe the outward tail current. The maximum amount of tail current was used to determine hERG current amplitude.
(§4) Six doses (30, 10, 3, 1, 0.3 and 0.1 μM) were selected to obtain a fitted curve and IC^50. The compound was prepared into serial dilutions in 3, 1, 0.3 and 0.1 mM DMSO vehicle to the final M ranges before the QPatch test. 5-10 minutes' ultrasonication and vortexing were generally used for solution to help completely dissolve the compound. The final DMSO concentration was 0.1% or lower, except that for the 30 μM point, the DMSO concentration was about 0.3%.
(§5) After achieving break-in (whole-cell) configuration, the cells were recorded for 120 s to assess current stability. The voltage settings described above were then applied to the cells once every 15 s throughout the whole process. Only stable cells with recording parameters above threshold were allowed to enter the drug assessment procedure. All the experiments were conducted at room temperature (about 25° C.).
(§6) An external solution containing 0.1% DMSO (vehicle) was applied to the cells to establish a baseline. After allowing the current to stabilize for 3 min, the compound was added. The compound solution was added and the cells were kept in the test solution until the effect of the compound reached a steady state or for a maximum of 4 min. For dose response assays, the compound was applied cumulatively to the cells from low to high concentrations. Washing with external solution was performed after compound testing. The positive control cisapride was used in the experiments to test the same batch of cells used for test compounds to ensure the normal response and the good quality of the cells.

hERG ion channel = biological target: T2, hERG ion channel (Homo sapiens, UniProt Q12809); assay: as above; type: cell-based; conditions: for Inhibitory activity against hERG (conclusion): 0.1-30 μM; for inhibition at 0.3 µM / inhibition at 1 µM / inhibition at 3 µM: human, CHO cells stably expressing hERG channels
T2 construct: expressed in transfected cells; host or cells: CHO cells, stably transfected
T2 sequence (Q12809 whole entry): as above
Method: as §1, §2, §3, §4, §5, §6

[1] = tested on: STAT5 Y694 phosphorylation; assay: HTRF experiment: STAT5 Y694 phosphorylation in Hela cells; type: cell-based, Human; conditions: for Inhibition rate @10 μM: 10 μM compound, 2 h pretreatment, interferon stimulation 30 min
Method: A multifunctional microplate reader (TECAN; […] F PLEX); 96-well cell culture plates (Bioyong), HTRF 384-well low volume plates (Cisbio; Cat #66PL384025); Human interferon 0 (IFN-0) (GenScript; Cat #P01574), STAT5 phospho-Y694 kits (Cisbio; Cat #64AT5PEG).
Hela cells (American Type Culture Collection (ATCC), CCL-2) were cultured in a 96-well plate with DMEM containing 5% fetal bovine serum at a density of 3×10^4 cells/well. The cells were incubated overnight in a 37° C., 5% carbon dioxide humidified incubator. The next day, the original DMEM in the 96-well plate was blotted, and equal volumes of medium containing different concentrations of compounds (stock solutions of compounds prepared with dimethyl sulfoxide were diluted to desired concentrations in medium) were added for 2 h of pretreatment. The plate was left to stand in a 37° C. incubator. Human interferon 0 was then added to a final concentration of 10 nM for stimulation. The plate was gently shaken so the contents were well mixed, and the plate was then left to stand in a 37° C. incubator for 30 min.
The medium was removed, and the plate was washed once with an appropriate volume of PBS and then blotted dry. Then 1×lysis buffer was added at 40 μL/well, and the plate was left to stand at room temperature for 30 min (preparation of 1 mL of 1× lysis buffer: mixing well 740 μL of ddH2O with 250 μL of 4× lysis buffer and […]). After 30 min, the cells were repeatedly pipetted until the lysis buffer was not viscous (bubbles were avoided) so that sufficient lysis was achieved.
In an HTRF 384-well low volume plate, 4 μL of an antibody premix (containing two antibodies: Cryptate and d2: the two antibodies were each 20-fold diluted with detection buffer and were then mixed in equal volume to form the antibody premix) and 16 μL of the cell lysate were added to each well. The plate was sealed with a sealing membrane and then incubated overnight at room temperature in a dark place.
After the overnight incubation, signals at 665 nm and 620 nm were detected separately on a multifunctional microplate reader. The calculation formula for the STAT5 Y694 phosphorylation assay is: Ratio=[(signal 665 nm)/(signal 620 nm)]×10^4. A dimethyl sulfoxide-only treatment group was set as a negative control (RatioNegative), and an interferon 0 stimulation group without compound addition was set as a positive control (RatioPositive). The inhibition rates of different samples against STAT5 Y694 phosphorylation were normalized: inhibition rate=[1−(RatioExperiment−RatioNegative)/(RatioPositive−RatioNegative)]×100.

[2] = read-out: % of hERG inhibition, Cell 1
[3] = read-out: % of hERG inhibition, Cell 2
[4] = read-out: Mean % hERG inhibition

SMILES | inhibition at 0.1 µM (hERG; [2]) [%] | inhibition at 0.1 µM (hERG; [3]) [%] | inhibition at 0.1 µM (hERG; [4]) [%] | inhibition at 0.3 µM (hERG; [2]) [%] | inhibition at 10 µM (hERG; [2]) [%] | inhibition at 10 µM (hERG; [3]) [%] | inhibition at 10 µM (hERG; [4]) [%] | inhibition at 30 µM (hERG; [2]) [%] | inhibition at 30 µM (hERG; [3]) [%] | inhibition at 30 µM (hERG; [4]) [%] | Inhibitory activity against hERG (conclusion) (hERG ion channel) | inhibition at 0.3 µM (hERG ion channel; [3]) [%] | inhibition at 0.3 µM (hERG ion channel; [4]) [%] | inhibition at 1 µM (hERG ion channel; [2]) [%] | inhibition at 1 µM (hERG ion channel; [3]) [%] | inhibition at 1 µM (hERG ion channel; [4]) [%] | inhibition at 3 µM (hERG ion channel; [2]) [%] | inhibition at 3 µM (hERG ion channel; [3]) [%] | inhibition at 3 µM (hERG ion channel; [4]) [%] | Inhibition rate @10 μM [1] [%] | other results
O=C(Cc1ccc2ncccc2c1)N1CCC(n2c(=O)[nH]c3cccc(C(F)(F)F)c32)CC1 [GEN1-117, 1-(1-(2-(Quinolin-6-yl)acetyl)piperidin-4-yl)-7-(trifluoromethyl)-1H-benzo[d]imidazol-2(3H)-one] | 3.84 | -0.21 | 1.81 | 3.95 | 12.8 | 19.3 | 16 | 12.8 | 19.3 | 16 | no significant inhibitory activity against hERG | 4.17 | 4.06 | 7.99 | 13.4 | 10.7 | 11 | 13.3 | 12.2 | 89.31 | 
O=C(Cc1ccc2ncccc2c1)N1CCC(n2c(=O)n(COP(=O)([O-])[O-])c3cccc(C(F)(F)F)c32)CC1.[Na+].[Na+] [GEN1-284 salt, (2-Oxo-3-(1-(2-(quinolin-6-yl)acetyl)piperidin-4-yl)-4-(trifluoromethyl)-2,3-dihydro-1H-benzo[d]imidazol-1-yl)methyl disodium phosphate] | 2.22 | 8.28 | 5.25 | 10.2 | 9.28 | 3.41 | 6.34 | 19.1 | 8.86 | 13.9 | no significant inhibitory activity against hERG | 2.25 | 6.24 | 2.88 | 0 | 1.44 | 0 | 2.66 | 1.33 | 82.46 | IC50 [1]: 2.6 µM
